Experimental data as given in PubChem BioAssay (NCI).
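Each compound was tested at five concentrations against cells in 96-well plates for 48 hours. GI50 marks 50% less growth. TGI is the concentration that stops growth completely.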

Columns and labels:
Assay in all cases: NCI-60 cell line screen, 48 h; in the data active = GI50 below about 0.43 µM; inactive = the rest
HOP-92 NSCLC = system: HOP-92 NSCLC
M14 melanoma = system: M14 melanoma
TK-10 renal = system: TK-10 renal
SK-MEL-28 melanoma = system: SK-MEL-28 melanoma
NCI-H460 lung = system: NCI-H460 lung
PC-3 prostate = system: PC-3 prostate
SF-295 CNS = system: SF-295 CNS
BT-549 breast = system: BT-549 breast
UO-31 renal = system: UO-31 renal
K-562 leukemia = system: K-562 leukemia
CCRF-CEM leukemia = system: CCRF-CEM leukemia
MALME-3M melanoma = system: MALME-3M melanoma
LOX IMVI melanoma = system: LOX IMVI melanoma
OVCAR-4 ovarian = system: OVCAR-4 ovarian
NCI-H226 lung = system: NCI-H226 lung
SK-MEL-5 melanoma = system: SK-MEL-5 melanoma
SF-268 CNS = system: SF-268 CNS
KM12 colon = system: KM12 colon
786-0 renal = system: 786-0 renal
SNB-19 CNS = system: SNB-19 CNS
SK-OV-3 ovarian = system: SK-OV-3 ovarian
UACC-257 melanoma = system: UACC-257 melanoma
HT29 colon = system: HT29 colon
HCT-116 colon = system: HCT-116 colon
SR leukemia = system: SR leukemia
UACC-62 melanoma = system: UACC-62 melanoma
SK-MEL-2 melanoma = system: SK-MEL-2 melanoma
A549 NSCLC = system: A549 NSCLC
SW-620 colon = system: SW-620 colon
ACHN renal = system: ACHN renal
SF-539 CNS = system: SF-539 CNS
OVCAR-5 ovarian = system: OVCAR-5 ovarian
HCC-2998 colon = system: HCC-2998 colon
IGROV1 ovarian = system: IGROV1 ovarian
NCI/ADR-RES ovarian = system: NCI/ADR-RES ovarian
NCI-H522 lung = system: NCI-H522 lung
MDA-MB-231 breast = system: MDA-MB-231 breast
RPMI-8226 leukemia = system: RPMI-8226 leukemia
HOP-62 NSCLC = system: HOP-62 NSCLC
MCF7 breast = system: MCF7 breast
U251 CNS = system: U251 CNS
MOLT-4 leukemia = system: MOLT-4 leukemia
CAKI-1 renal = system: CAKI-1 renal
EKVX NSCLC = system: EKVX NSCLC
HCT-15 colon = system: HCT-15 colon
A498 renal = system: A498 renal
COLO 205 colon = system: COLO 205 colon
SNB-75 CNS = system: SNB-75 CNS
MDA-MB-435 = system: MDA-MB-435
NCI-H23 lung = system: NCI-H23 lung
DU-145 prostate = system: DU-145 prostate
HS 578T breast = system: HS 578T breast
OVCAR-8 ovarian = system: OVCAR-8 ovarian
SN12C renal = system: SN12C renal
OVCAR-3 ovarian = system: OVCAR-3 ovarian
T-47D breast = system: T-47D breast
HL-60(TB) leukemia = system: HL-60(TB) leukemia

CC[C@H](C)[C@H](NC(=O)C12C3C4C1C1C2C3C41NC(C)=O)C(=O)N(C)[C@H](C[C@@H](OC(C)=O)c1nc(C(=O)N[C@@H](Cc2ccccc2)C[C@H](C)C(=O)OC)cs1)C(C)C (stereo partly drawn)
2470 nM: TGI (HT29 colon)
1710 nM: TGI (COLO 205 colon)
2250 nM: TGI (M14 melanoma)
inactive: GI50 (HOP-92 NSCLC) > 14300 nM | GI50 (TK-10 renal) 1110 nM | GI50 (SK-MEL-28 melanoma) > 3700 nM | GI50 (PC-3 prostate) 582 nM | GI50 (SF-295 CNS) 494 nM | GI50 (UO-31 renal) 8550 nM | GI50 (OVCAR-4 ovarian) 1380 nM | GI50 (NCI-H226 lung) > 9710 nM | GI50 (SF-268 CNS) 677 nM | GI50 (KM12 colon) 471 nM | GI50 (786-0 renal) 902 nM | GI50 (SNB-19 CNS) 578 nM | GI50 (SK-OV-3 ovarian) 703 nM | GI50 (UACC-257 melanoma) 563 nM | GI50 (A549 NSCLC) 2820 nM | GI50 (ACHN renal) 2530 nM | GI50 (OVCAR-5 ovarian) 3970 nM | GI50 (IGROV1 ovarian) 593 nM | GI50 (NCI/ADR-RES ovarian) > 14300 nM | GI50 (MDA-MB-231 breast) 435 nM | GI50 (HOP-62 NSCLC) 618 nM | GI50 (U251 CNS) 434 nM | GI50 (MOLT-4 leukemia) 588 nM | GI50 (CAKI-1 renal) > 10800 nM | GI50 (EKVX NSCLC) 2810 nM | GI50 (HCT-15 colon) 2410 nM | GI50 (A498 renal) 503 nM | GI50 (NCI-H23 lung) 884 nM | GI50 (DU-145 prostate) 469 nM | GI50 (HS 578T breast) 468 nM | GI50 (OVCAR-8 ovarian) 614 nM | GI50 (SN12C renal) 799 nM | GI50 (T-47D breast) > 14300 nM
> 6780 nM: TGI (RPMI-8226 leukemia)
active: GI50 (M14 melanoma) 259 nM | GI50 (NCI-H460 lung) 402 nM | GI50 (BT-549 breast) 146 nM | GI50 (K-562 leukemia) 118 nM | GI50 (CCRF-CEM leukemia) 361 nM | GI50 (LOX IMVI melanoma) 231 nM | GI50 (SK-MEL-5 melanoma) 152 nM | GI50 (HT29 colon) 360 nM | GI50 (HCT-116 colon) 354 nM | GI50 (SR leukemia) 33.1 nM | GI50 (UACC-62 melanoma) 112 nM | GI50 (SK-MEL-2 melanoma) 162 nM | GI50 (SW-620 colon) 206 nM | GI50 (SF-539 CNS) 349 nM | GI50 (HCC-2998 colon) 279 nM | GI50 (NCI-H522 lung) 63.7 nM | GI50 (RPMI-8226 leukemia) 73.5 nM | GI50 (MCF7 breast) 50.3 nM | GI50 (COLO 205 colon) 346 nM | GI50 (SNB-75 CNS) 109 nM | GI50 (MDA-MB-435) 42.7 nM | GI50 (OVCAR-3 ovarian) 56.5 nM | GI50 (HL-60(TB) leukemia) 67.9 nM
625 nM: TGI (MDA-MB-435)
> 14300 nM: TGI (HOP-92 NSCLC) | TGI (TK-10 renal) | TGI (SK-MEL-28 melanoma) | TGI (NCI-H460 lung) | TGI (PC-3 prostate) | TGI (SF-295 CNS) | TGI (UO-31 renal) | TGI (K-562 leukemia) | TGI (CCRF-CEM leukemia) | TGI (MALME-3M melanoma) | TGI (LOX IMVI melanoma) | TGI (OVCAR-4 ovarian) | TGI (NCI-H226 lung) | TGI (SF-268 CNS) | TGI (KM12 colon) | TGI (786-0 renal) | TGI (SNB-19 CNS) | TGI (SK-OV-3 ovarian) | TGI (UACC-257 melanoma) | TGI (HCT-116 colon) | TGI (SR leukemia) | TGI (UACC-62 melanoma) | TGI (SK-MEL-2 melanoma) | TGI (A549 NSCLC) | TGI (SW-620 colon) | TGI (ACHN renal) | TGI (OVCAR-5 ovarian) | TGI (HCC-2998 colon) | TGI (IGROV1 ovarian) | TGI (NCI/ADR-RES ovarian) | TGI (MDA-MB-231 breast) | TGI (HOP-62 NSCLC) | TGI (MCF7 breast) | TGI (U251 CNS) | TGI (MOLT-4 leukemia) | TGI (CAKI-1 renal) | TGI (EKVX NSCLC) | TGI (HCT-15 colon) | TGI (SNB-75 CNS) | TGI (NCI-H23 lung) | TGI (HS 578T breast) | TGI (OVCAR-8 ovarian) | TGI (SN12C renal) | TGI (T-47D breast)
3840 nM: TGI (BT-549 breast)
10200 nM: TGI (A498 renal)
513 nM: TGI (NCI-H522 lung)
1080 nM: TGI (OVCAR-3 ovarian)
2980 nM: TGI (SK-MEL-5 melanoma)
383 nM: TGI (HL-60(TB) leukemia)
> 9880 nM: TGI (DU-145 prostate)
1010 nM: TGI (SF-539 CNS)
